Measurements as given in US20100311107A1, “Ultra-High Throughput Screening of Natural Products” (priority 2004, published 2010).
Read-outs that look alike come from different tables or passages of the source.

What was measured:
Type in all cases: cell-based, Escherichia coli
[1] = system: E. coli screening strain CM242; parameters: unit not given here
Description: (§1) The level of drug resistance of these screening strains (both intermediates and finals) was evaluated by standard MIC assay in MHB liquid medium and the result of Strain CM242 is summarized in Table 12.

[2] = system: E. coli screening strain CM435; parameters: Minimal inhibitory concentrations (MIC90) CM435: unit not given here
[3] = system: E. coli screening strain DR1234; parameters: unit not given here
Description: (§2) The screening strain, DR1234, was established after all desired drug-resistant genes listed in Table 5 had been delivered into the parent E. coli strain, MG1655, by methods described above. Its level of drug resistance was analyzed by the standard minimum inhibitory concentration (MIC) assay in MHB liquid medium (Chantot, et al., 1986, “Antibacterial activity of roxithromycin: a laboratory evaluation,” J. Antibiot, 39(5):660-8) and the result was summarized in Table 7.

screening strain DR1212 = experiment: macrodroplet screening assay for DNA-interacting agents; conditions: DNA excluded from the bioassay medium
Description: (§3) After the period of incubation as described above, macrodroplets can be screened for biological activities by a unique technique termed macrodroplet screening assay. The biological activities of compounds secreted by the encapsulated microorganisms and contained within the macrodroplet beads can be detected by, for example, cell growth inhibition. In general, screening strains should first be cultured to a certain cell density (proper OD reads as described in section 5.3.3.) in liquid medium and then plated in semi-solid medium matrix (0.8%), which overlays the macrodroplet beads (see FIG. 1, item 140. Item 145 of FIG. 1 represents the top layer of semi-solid medium matrix containing a selected screening strain). After being incubated overnight, the screening strain can grow throughout the matrix, except in areas where macrodroplet beads release metabolites, which prevent the growth of the screening strain. The inhibition of cell growth may result in zones of inhibition around these beads (see item 155, FIG. 1), which usually can be detected visually.
Screening for DNA-interacting agents was carried out using the standard macrodroplet screening method previously described, with the exception that DNA was excluded from the bioassay medium. Following overnight incubation at 35° C., macrodroplet beads from zones of inhibition are recovered and processed via the normal route as discussed in section 5.2.2.4.
Alternatively, a second round screening was performed to increase specificity of the screening. Microorganisms obtained as the outcome of the screening described above were subject to a second round of screening using screening strains having a lacZ reporter gene controlled by promoters responsive to DNA damage, such as CM191 and CM242 (see section 5.3.1.d. The details of screening procedure are discussed in both section 5.2.3. Microorganisms from macrodroplets producing zones of activity were purified using methods previously described and fermented in larger volumes. Their species specificities were determined by sequencing their 16S rRNA genes and the active compounds were purified and further characterized. Several active compounds were selected by DR1212, such as chrysomycin, streptonigrin, daunomycin and chromomycin, which are all known DNA damaging agents.

[4] = system: E. coli screening strain DR1212; parameters: unit not given here
Description: (§4) The level of drug-resistance of screening strain DR1212 was analyzed by standard MIC assay in MHB liquid medium and the result was summarized in Table 11. Similar to screening strains, DR1234 and CM166, DR1212 is also resistant to drugs whose resistant genes have been introduced.

[5] = system: E. coli screening strain CM400; parameters: unit not given here
Description: (§5) The level of drug resistance of screening strains CM400 and CM435 was evaluated by standard MIC assay in MHB liquid medium and the results are summarized in Table 13. According to the MIC results, CM435 is hypersensitive to Bleomycin, Daunorucibin, Coumermycin A1 and Erythromycin. Screening strain CM435 and others, which are hypersensitive to certain types of antimicrobial agents, are advantageous in detecting bioactive compounds with low concentration in the screening system.

[6] = system: E. coli screening strain CM166; parameters: unit not given here
Source text: (§6) The level of drug resistance of CM166 was estimated by MIC assay carried out in MHB liquid medium and the results were summarized in Table 9. CM166 is resistant to antibacterial agents whose resistant genes have been incorporated into the strain, but not to other antibacterial drugs whose resistant genes are not incorporated.

E. coli MG1655 = system: E. coli MG1655; parameters: unit not given here
Description: as §2, §6, §4, §1, §5

[7] = system: lacZ reporter gene of the screening strains (CM191, CM242); experiment: S-Gal staining assay on solid medium; conditions: screening strains on solid medium, drug-impregnated disks, PETG to suppress background
Source text: The screening strains' responses to DNA damaging agents were further confirmed by S-Gal staining assay. When mitomycin C and streptonigrin (both were well-known DNA damaging drugs) and S-Gal, the indicator, were applied to the screening strains growing on solid medium, blue-colored rings were visible around colonies in drug-impregnated disks. […] Actinomycin D was an exception. CM242 was not sensitive to this drug, although it disrupts DNA structure. PETG (2-phenyethyl B-D-thiogalactoside, Sigma, St Louis Mo.), was used in this experiment to suppress unspecific background activity.

[8] = system: BW25113 strain containing drug-resistant genes inserted into the bioA locus; experiment: drug resistance characterization of strain with Tn7 cassette in bioA locus; conditions: BW25113 with Tn7 cassette in bioA, native sat promoter
Source text: Therefore, a functional copy was introduced by homologous recombination as described hereafter. The drug-resistant gene of interest was synthesized in vitro using PCR with oligonucleotide primers that contained homologous sequences to the target genes and an additional ˜50 by homologous to a particular chromosomal site of the recipient strain. For instance, to insert the Tn7-associated resistance gene cassette dhfrI-sat-aadA into the bioA gene locus of the recipient strain, the primers listed in Table 6 were used. The capitalized portions of these primers hybridized to Tn7 template DNA upstream and downstream of the resistance gene cassette and allowed PCR amplification of the target fragment (Roche (Mannheim, Germany) Long Template PCR System). The ˜50 by additional sequence of these oligonucleotides (low case) afforded regions of homology with the chromosomal target site of the recipient, in this instance, the bioA gene locus (Table 6). The PCR product of the above reaction was introduced into a specialized strain, BW25113 (obtained from the E. coli Genetic Stock Center, strain # 7739) by standard electroporation following the manufacturer's instruction of BioRad (Hercules, Calif.) Gene Pulser, model #1652076, for standard electroporation of E. coli. Double-crossover homologous recombination, mediated by the bacteriophage lambda Red recombinase present in the strains pKD46 [#7630], pKD78 [#7989] or pKD119 [#7990], occurred between the “bioA” locus of the recipient strain and the PCR products via their homologous regions designed in the PCR primers as described above, resulting in the insertion of the drug resistance cassette into the bioA locus of the chromosome (FIG. 3, item 315). […] Once verified by drug resistance characterization and diagnostic PCR assay (see above), the drug resistance-encoding locus from the BW25113/pKD46 strain was introduced into the same locus of the recipient screening strain by standard P1 transduction as described above, also see FIG. 3, item 310.
To increase the gene expression level, the T7 promoter was used to replace the weak promoter of sat gene.

screening strain CM166 = experiment: macrodroplet screening assay, zones of inhibition; conditions: soil actinomycetes in macrodroplets, DNA and biotin in medium
Description: as §3
Next, microorganisms from the soil samples collected as described above were encapsulated to form macrodroplets populated by a single microorganism in each bead, according to the pre-determined cfu count of the particular soil extract. In this process, an aliquot of the soil bacteria suspension was diluted in 10% glycerol to generate an inoculum of the required density. This adjusted suspension was then mixed with nutrient medium, counterselective agents (see above) and 1.4% sodium alginate and the resultant mixture processed through an Inotech Encapsulator® Research device, to produce gel-beads (called macrodroplets) by the formation of droplets of liquid from a fluid stream. The droplets solidified into gel-beads as they came into contact with a calcium chloride bath, which also contained nutrient medium and counterselective agents. After a defined hardening time the macrodroplets were washed to remove excess calcium chloride and to stop the hardening process. Smidsrod and Skjak-Braek, 1990, “Alginate as immobilization matrix for cells,” Trends Biotechnol. 8(3):71-8. Cured macrodroplets containing microorganisms were then spread in dishes from which excess fluid was removed. The macrodroplets subsequently allowed growth of the target organisms and production of secondary metabolites such as anti-microbial agents. Macrodroplets were spread evenly over the plate using a sterile spreader (5,000 particles per plate) and incubated at 28-30° C. for 7 days to allow the growth of the microorganism within, and the production of secondary metabolites.
CM166 (see section 5.3.1.b for details) was used as the test strain in this example. Two to three single colonies of CM166 were inoculated into a shake flask containing 10 ml of MHB medium with 40 μg/ml Tmp and 200 μg/ml Amp. After the cells were cultured at 35° C. for 2-3 hours, an OD reading was performed. If the OD reading was above 0.1 (equivalent to 2×10^8 cfu), the screening strain was ready for dilution. Otherwise, the strain needed to be incubated for longer time until the OD read reached >0.1. Medium for the macrodroplet assay (in 1 L Duran, add 10.5 g MHB power, 4 g agar (0.8%), and 1 g DNA) was autoclaved and cooled to ˜45° C., and ampicillin (25 mg/ml), tetracycline (10 mg/ml), daptomycin (20 mg/ml) and biotin (0.1 μg/ml) were added, together with 2.5 ml screening strain. […]

In the case of `COc1cccc2c1C(=O)c1c(O)c3c(c(O)c1C2=O)C[C@@](O)(C(C)=O)C[C@@H]3O[C@H]1C[C@H](N)[C@H](O)[C@H](C)O1` [Daunorubicin], the “Minimal inhibitory concentrations (MIC90) CM242” value ([1]; second Table 12, MHB medium) is reported as 100, the “sensitivity of CM435 according to the MIC results” value ([2]; MHB liquid medium) is reported as “hypersensitive” and the “Minimal inhibitory concentrations (MIC90) CM435” value ([2]; Table 13, MHB medium) is reported as 8. The “Minimal inhibitory concentrations (MIC90) DR1234” value ([3]; Table 7, MHB medium) was over 400, the “active compound selected by DR1212” value (screening strain DR1212) was “active” and the “Minimal inhibitory concentrations (MIC90) DR1212” value ([4]; Table 11, MHB medium) was 12.5. The “Minimal inhibitory concentrations (MIC90) CM400” value ([5]; Table 13, MHB medium) was over 256, the “Minimal inhibitory concentrations (MIC90) CM166” value ([6]; Table 9, MHB medium) was over 400 and the “Minimal inhibitory concentrations (MIC90) MG1655” value (E. coli MG1655; Table 7, MHB medium) was 200. The “Minimal inhibitory concentrations (MIC90) MG1655” value (E. coli MG1655; Table 9, MHB medium) was 200, the “Minimal inhibitory concentrations (MIC90) MG1655” value (E. coli MG1655; Table 11, MHB medium) was 200 and the “Minimal inhibitory concentrations (MIC90) MG1655” value (E. coli MG1655; Table 13, MHB medium) was over 256. The “Minimal inhibitory concentrations (MIC90) MG1655” value (E. coli MG1655; second Table 12, MHB medium) was 200.
With `CCn1cc(C(=O)O)c(=O)c2ccc(C)nc21` [Nalidixic Acid] the “Minimal inhibitory concentrations (MIC90) CM242” value ([1]; second Table 12, MHB medium) was over 400, the “Minimal inhibitory concentrations (MIC90) CM435” value ([2]; Table 13, MHB medium) was over 64 and the “Minimal inhibitory concentrations (MIC90) DR1234” value ([3]; Table 7, MHB medium) was 400. The “Minimal inhibitory concentrations (MIC90) DR1212” value ([4]; Table 11, MHB medium) was 50, the “Minimal inhibitory concentrations (MIC90) CM400” value ([5]; Table 13, MHB medium) was over 64 and the “lacZ reporter gene expression (S-Gal, blue-colored rings)” value [7] was “not expressed”. The “Minimal inhibitory concentrations (MIC90) CM166” value ([6]; Table 9, MHB medium) was 800, the “Minimal inhibitory concentrations (MIC90) MG1655” value (E. coli MG1655; Table 7, MHB medium) was 6.3 and the “Minimal inhibitory concentrations (MIC90) MG1655” value (E. coli MG1655; Table 9, MHB medium) was 6.3. The “Minimal inhibitory concentrations (MIC90) MG1655” value (E. coli MG1655; Table 11, MHB medium) was 6.3, the “Minimal inhibitory concentrations (MIC90) MG1655” value (E. coli MG1655; Table 13, MHB medium) was 8 and the “Minimal inhibitory concentrations (MIC90) MG1655” value (E. coli MG1655; second Table 12, MHB medium) was 6.3.
`COc1cc(Cc2cnc(N)nc2N)cc(OC)c1OC` [Trimethoprim] was tested, and the “Minimal inhibitory concentrations (MIC90) CM242” value [1] was over 400, the “Minimal inhibitory concentrations (MIC90) CM435” value [2] was over 64 and the “Minimal inhibitory concentrations (MIC90) DR1234” value [3] was over 400. The “Minimal inhibitory concentrations (MIC90) DR1212” value [4] was over 400, the “resistance conferred, concentration” value [8] was “at least 10 ug/ml” and the “Minimal inhibitory concentrations (MIC90) CM400” value [5] was over 64. For the same molecule, the “lacZ reporter gene expression (S-Gal, blue-colored rings)” value [7] was “not expressed” and the “Minimal inhibitory concentrations (MIC90) CM166” value [6] was over 400.
With `CCC(=O)Nc1c2sscc-2n(C)c1=O` [aureothricin] the “bioactive compound of actinomycete strains selected with CM166” value (screening strain CM166) was “bioactive”.
`COC1C(O)CC(OC2CC(Oc3cc4cc5c(c(O)c4c(O)c3C)C(=O)[C@@H](OC3CC(OC4CC(OC6CC(C)(O)C(OC(C)=O)C(C)O6)C(O)C(C)O4)C(O)C(C)O3)[C@H]([C@H](OC)C(=O)[C@@H](O)[C@@H](C)O)C5)OC(C)C2OC(C)=O)OC1C` (stereo partly shown) [chromomycin] was tested, and the “active compound selected by DR1212” value (screening strain DR1212) was “active”.
For `O=C(O)/C=C/CC[C@@H]1SC[C@@H]2NC(=O)N[C@@H]21` [lydimycin], the “bioactive compound of actinomycete strains selected with CM166” value (screening strain CM166) was “bioactive”.
With `CC(=O)Nc1c2sscc-2n(C)c1=O` [thiolutin] the “bioactive compound of actinomycete strains selected with CM166” value (screening strain CM166) was “bioactive”.
albomycin was tested, and the “bioactive compound of actinomycete strains selected with CM166” value (screening strain CM166) was “bioactive”.
With chrysomycin the “active compound selected by DR1212” value (screening strain DR1212) was “active”.
streptavidin was tested, and the “bioactive compound of actinomycete strains selected with CM166” value (screening strain CM166) was “bioactive”.
